From PMC5458052 (Nature Communications, 2017)
Read-outs that look alike come from different tables or passages of the source.

Tests used:
P. falciparum 3D7 = experiment: In vitro antimalarial activity, drug sensitivity testing (3D7); type: cell-based; conditions: Plasmodium falciparum
[1] = In vitro intrinsic clearance, human liver microsomes (Chem Partners); type: in vitro ADME; conditions: human (H) liver microsomes
[2] = In vitro intrinsic clearance, rat liver microsomes (Chem Partners); type: in vitro ADME; conditions: rat (R) liver microsomes
[3] = Rat PK iv 1 mg/kg (Chem Partners); conditions: in vivo
[4] = Rat blood stability in vitro; conditions: male, Sprague Dawley, freshly collected whole blood
[5] = Metabolic stability and metabolite profile in human liver microsomes; conditions: for Relative Peak Area (expressed as % total metabolite peak area generated over 60 minutes): metabolite of E209, human liver microsomes with NADPH; for In vitro CLint / Microsome-Predicted EH / Degradation half-life: human liver microsomes
[6] = Metabolic stability and metabolite profile in mouse liver microsomes; type: in vitro ADME; conditions: for Relative Peak Area (expressed as % total metabolite peak area generated over 60 minutes): metabolite of E209, mouse liver microsomes with NADPH; for Degradation half-life / In vitro CLint / Microsome-Predicted EH: mouse liver microsomes
[7] = Metabolic stability and metabolite profile in rat liver microsomes; type: in vitro ADME; conditions: for Relative Peak Area (expressed as % total metabolite peak area generated over 60 minutes): metabolite of E209, rat liver microsomes with NADPH; for Degradation half-life / In vitro CLint / Microsome-Predicted EH: rat liver microsomes
[8] = system: P. falciparum strain 3D7A; design: method as in PMID 22383983; conditions: cited from earlier work
[9] = Solubility at 37°C over a 6 hour incubation; type: physicochemical; conditions: free base equivalent
[10] = 10 × IC50, previous results on standard anti-malarials

In the case of `FC1(F)CCN(CCOc2ccc(C3CCC4(CC3)OOC3(OO4)C4CC5CC(C4)CC3C5)cc2)CC1` (stereo not drawn) [Compound 8], the IC50 (P. falciparum 3D7) is reported as 8.5 ± 0.6 nM, the CLint scaled [1] is reported as 6.42 L/h/kg and the CLint scaled [2] is reported as 3.6 L/h/kg. It also gave a clearance [3] of 0.078 L/h/kg, a half-life [3] of 2.8 h and a half-life at 1 µM [4] of 16 h.

For `[O-][N+]1(CCOc2ccc(C3CCC4(CC3)OOC3(OO4)C4CC5CC(C4)CC3C5)cc2)CCC(F)CC1` (stereo not drawn) [M+16 (IV)], the “Relative Peak Area (expressed as % total metabolite peak area generated over 60 minutes)” value [5] was 4%, the “Relative Peak Area (expressed as % total metabolite peak area generated over 60 minutes)” value [6] was 9% and the “Relative Peak Area (expressed as % total metabolite peak area generated over 60 minutes)” value [7] was 50%.

`c1cc(C2CCC3(CC2)OOC2(OO3)C3CC4CC(C3)CC2C4)ccc1OCCN1CCOCC1` (stereo not drawn) [Compound 4] gave an IC50 (P. falciparum 3D7) of 10 ± 1 nM, a CLint scaled [1] of 8.1 L/h/kg and a CLint scaled [2] of 5.16 L/h/kg. For the same compound, the clearance [3] was 0.426 L/h/kg, the half-life [3] was 1.1 h and the half-life at 1 µM [4] was 14 h.

For `CCc1nc(N)nc(N)c1-c1ccc(Cl)cc1` [Pyrimethamine, pyrimethamine], the Lag phase [8, 10] is given as 24 h, the “Log PRR” value [8, 10] is given as 3.7 and the “PCT 99.9 %” value [8, 10] is given as 57 h. The Slope [8, 10] was −0.077.

In the case of `O=C1C(O)=C([C@H]2CC[C@H](c3ccc(Cl)cc3)CC2)C(=O)c2ccccc21` [Atovaquone, atovaquone], the Lag phase [8, 10] is given as 48 h, the “Log PRR” value [8, 10] is given as 2.9 and the “PCT 99.9 %” value [8, 10] is given as 81 h. The Slope [8, 10] was −0.060.

For `OC1CCC(c2ccc(OCCN3CCC(F)CC3)cc2)CC1` (stereo not drawn) [Compound M-180], the “Relative Peak Area (expressed as % total metabolite peak area generated over 60 minutes)” value [5] was 10%, the “Relative Peak Area (expressed as % total metabolite peak area generated over 60 minutes)” value [6] was 20% and the “Relative Peak Area (expressed as % total metabolite peak area generated over 60 minutes)” value [7] was 9%.

`CS(=O)(=O)O.c1cc(C2CCC3(CC2)OOC2(OO3)C3CC4CC(C3)CC2C4)ccc1CN1CCOCC1` (stereo not drawn) [N205 mesylate] showed a Solubility ([9]; 0.01 N HCl, media pH 2.0, 37°C, 1 h) of 0.25 mg/mL, a Solubility ([9]; 0.01 N HCl, media pH 2.0, 37°C, 4 h) of 0.172 mg/mL and a Solubility ([9]; 0.01 N HCl, media pH 2.0, 37°C, 6 h) of 0.155 mg/mL. For the same compound, the Solubility ([9]; 0.1 N HCl, media pH 1.0, 37°C, 1 h) was 0.0212 mg/mL, the Solubility ([9]; 0.1 N HCl, media pH 1.0, 37°C, 4 h) was 0.0172 mg/mL and the Solubility ([9]; 0.1 N HCl, media pH 1.0, 37°C, 6 h) was 0.016 mg/mL. It also gave a Solubility ([9]; FaSSIF blank, 37°C, 1 h) of less than 0.0001 mg/mL, a Solubility ([9]; FaSSIF blank, 37°C, 4 h) of less than 0.0001 mg/mL and a Solubility ([9]; FaSSIF blank, 37°C, 6 h) of less than 0.0001 mg/mL. It also gave a Solubility ([9]; FaSSIF, media pH 6.5, 37°C, 1 h) of 0.024 mg/mL, a Solubility ([9]; FaSSIF, media pH 6.5, 37°C, 4 h) of 0.0181 mg/mL and a Solubility ([9]; FaSSIF, media pH 6.5, 37°C, 6 h) of 0.0267 mg/mL. It also gave a Solubility ([9]; FeSSIF blank, 37°C, 1 h) of 0.0023 mg/mL, a Solubility ([9]; FeSSIF blank, 37°C, 4 h) of 0.0009 mg/mL and a Solubility ([9]; FeSSIF blank, 37°C, 6 h) of 0.0012 mg/mL. It also gave a Solubility ([9]; FeSSIF, media pH 5.0, 37°C, 1 h) of 1.089 mg/mL, a Solubility ([9]; FeSSIF, media pH 5.0, 37°C, 4 h) of 0.755 mg/mL and a Solubility ([9]; FeSSIF, media pH 5.0, 37°C, 6 h) of 0.783 mg/mL. It also gave a Solubility ([9]; Phosphate buffer, media pH 7.4, 37°C, 1 h) of less than 0.0001 mg/mL, a Solubility ([9]; Phosphate buffer, media pH 7.4, 37°C, 4 h) of less than 0.0001 mg/mL and a Solubility ([9]; Phosphate buffer, media pH 7.4, 37°C, 6 h) of less than 0.0001 mg/mL.

For `C[C@@H]1CC[C@H]2[C@@H](C)C(=O)O[C@@H]3O[C@@]4(C)CC[C@@H]1[C@]32OO4` [Artemisinin, artemisinin], the Lag phase [8] is listed as 0 h, the “Log PRR” value [8] is listed as greater than 4.8 and the “PCT 99.9 %” value [8] is listed as less than 24 h. The Slope [8] was −0.101.

With `c1cc(C2CCC3(CC2)OOC2(OO3)C3CC4CC(C3)CC2C4)ccc1CN1CCOCC1` (stereo not drawn) [Compound N205] the “In vitro CLint” value ([5]; substrate 1 µM) was 51 µL/min/mg protein, the “Microsome-Predicted EH” value ([5]; substrate 1 µM) was 0.67 and the Degradation half-life ([5]; substrate 1 µM, NADPH-dependent) was 0.567 h. The Degradation half-life ([5]; substrate 5 µM) was 0.717 h, the “In vitro CLint” value ([5]; substrate 5 µM) was 41 µL/min/mg protein and the “Microsome-Predicted EH” value ([5]; substrate 5 µM) was 0.62. For the same compound, the Degradation half-life ([6]; substrate 1 µM) was 0.8 h, the “In vitro CLint” value ([6]; substrate 1 µM) was 37 µL/min/mg protein and the “Microsome-Predicted EH” value ([6]; substrate 1 µM) was 0.44. The Degradation half-life ([6]; substrate 5 µM) was 1.45 h, the “In vitro CLint” value ([6]; substrate 5 µM) was 20 µL/min/mg protein and the “Microsome-Predicted EH” value ([6]; substrate 5 µM) was 0.30. For the same compound, the Degradation half-life ([7]; substrate 1 µM) was 0.25 h, the “In vitro CLint” value ([7]; substrate 1 µM) was 118 µL/min/mg protein and the “Microsome-Predicted EH” value ([7]; substrate 1 µM) was 0.75. The Degradation half-life ([7]; substrate 5 µM) was 0.333 h, the “In vitro CLint” value ([7]; substrate 5 µM) was 89 µL/min/mg protein and the “Microsome-Predicted EH” value ([7]; substrate 5 µM) was 0.69.

For `O=C1CCC(c2ccc(OCCN3CCC(F)CC3)cc2)CC1` [Compound M-182], the “Relative Peak Area (expressed as % total metabolite peak area generated over 60 minutes)” value [5] was 11%, the “Relative Peak Area (expressed as % total metabolite peak area generated over 60 minutes)” value [6] was 27% and the “Relative Peak Area (expressed as % total metabolite peak area generated over 60 minutes)” value [7] was 13%.
